Data published in ChEMBL document CHEMBL4819020, “Discovery of [1,2,4]triazolo[1,5-a]pyrimidines derivatives as potential anticancer agents” (Eur J Med Chem, 2021).
Calls of active or inactive are those of the source. The rule behind the calls is not given here.

Legend:
[1] = system: MGC-803; experiment: Induction of apoptosis in human MGC-803 cells assessed as late apoptotic cells at 3 uM measured after 48 hrs by Annexin V-FITC/PI staining based flow cytometry method (reference value: 3.10 %); type: functional
[2] = system: MGC-803; experiment: Cell cycle arrest in human MGC-803 cells assessed as accumulation of cells in G2/M phase at 0.75 uM measured after 24 hrs by PI staining based flow cytometry assay (reference value: 33.35%); type: functional
[3] = Toxicity in mouse assessed as effect on liver at 2 mg/kg, ig measured after 2 weeks by H and E staining based microscopic method; type: organism-based; conditions: in vivo, po, 336 h
[4] = system: MGC-803; experiment: Cell cycle arrest in human MGC-803 cells assessed as accumulation of cells in S phase at 1.5 uM measured after 24 hrs by PI staining based flow cytometry assay (reference value: 18.03%); type: functional
[5] = system: MGC-803; experiment: Antiproliferative activity against human MGC-803 cells assessed as cell viability measured after 24 to 72 hrs by MTT assay; type: functional, cell-based; conditions: dose 0.75-3 µM, time 24-72 hrs
[6] = system: MGC-803; experiment: Induction of apoptosis in human MGC-803 cells assessed by increase in ROS production at 3 uM measured after 24 hrs by DCFH-DA staining based flow cytometry; type: functional, cell-based
[7] = system: MGC-803; experiment: Cell cycle arrest in human MGC-803 cells assessed as accumulation of cells in S phase at 3 uM measured after 24 hrs by PI staining based flow cytometry assay (reference value: 18.03%); type: functional
[8] = system: MGC-803; experiment: Antiproliferative activity against human MGC-803 cells assessed as inhibition of cell proliferation measured after 72 hrs by MTT assay; type: functional, cell-based; conditions: MGC-803, 72 h
[9] = Toxicity in mouse assessed as effect on lung at 2 mg/kg, ig measured after 2 weeks by H and E staining based microscopic method; type: organism-based; conditions: in vivo, po, 336 h
[10] = system: MGC-803; experiment: Cell cycle arrest in human MGC-803 cells assessed as accumulation of cells in G2/M phase at 3 uM measured after 24 hrs by PI staining based flow cytometry assay (reference value: 33.35%); type: functional
[11] = system: PC-9; experiment: Antiproliferative activity against human PC-9 cells assessed as inhibition of cell proliferation measured after 72 hrs by MTT assay; type: functional, cell-based; conditions: PC-9, 72 h
[12] = system: MGC-803; experiment: Cell cycle arrest in human MGC-803 cells assessed as accumulation of cells in G2/M phase at 1.5 uM measured after 24 hrs by PI staining based flow cytometry assay (reference value: 33.35%); type: functional
[13] = system: MGC-803; experiment: Induction of apoptosis in human MGC-803 cells assessed as necrotic cells at 0.75 uM measured after 48 hrs by Annexin V-FITC/PI staining based flow cytometry method (reference value: 3.60 %); type: functional
[14] = system: MGC-803; experiment: Induction of apoptosis in human MGC-803 cells assessed as increase in p53 expression at 0.75 to 3 uM measured after 48 hrs by western blot assay; type: functional, cell-based; conditions: dose 0.75-3 µM
[15] = system: MGC-803; experiment: Antiproliferative activity against human MGC-803 cells assessed as inhibition of colony formation at 0.125 to 0.5 uM measured after 7 days by crystal violet dye based colony formation assay; type: functional, cell-based; conditions: dose 0.125-0.5 µM, time 7.0 day
[16] = system: MGC-803; experiment: Induction of apoptosis in human MGC-803 cells assessed as viable cells at 1.5 uM measured after 48 hrs by Annexin V-FITC/PI staining based flow cytometry method (reference value: 92.3 %); type: functional; conditions: read-out: Activity
[17] = system: MGC-803; experiment: Induction of cell cycle arrest in human MGC-803 cells assessed as increase in p27 expression at 0.75 to 3 uM measured after 24 hrs by western blot assay; type: functional, cell-based; conditions: dose 0.75-3 µM
[18] = Selectivity index, ratio of EC50 for human MGC-803 cells to EC50 for human GES1 cells
[19] = system: MGC-803; experiment: Induction of apoptosis in human MGC-803 cells assessed as increase in cleaved caspase 3/9 expression at 0.75 to 3 uM measured after 48 hrs by western blot assay; type: functional, cell-based; conditions: dose 0.75-3 µM
[20] = system: MGC-803; experiment: Induction of apoptosis in human MGC-803 cells assessed as necrotic cells at 3 uM measured after 48 hrs by Annexin V-FITC/PI staining based flow cytometry method (reference value: 3.60 %); type: functional
[21] = system: MGC-803; experiment: Inhibition of cell migration in human MGC-803 cells measured after 48 hrs by transwell assay; type: functional, cell-based; conditions: dose 0.25-1 µM
[22] = system: MGC-803; experiment: Cell cycle arrest in human MGC-803 cells assessed as accumulation of cells in S phase at 0.75 uM measured after 24 hrs by PI staining based flow cytometry assay (reference value: 18.03%); type: functional
[23] = system: MGC-803; experiment: Induction of apoptosis in human MGC-803 cells assessed by nuclear fragmentation at 0.75 to 3 uM measured after 48 hrs by Hoechst 33342 staining based microscopic method; type: functional, cell-based; conditions: dose 0.75-3 µM
[24] = Toxicity in mouse assessed as effect on heart at 2 mg/kg, ig measured after 2 weeks by H and E staining based microscopic method; type: organism-based; conditions: in vivo, po, 336 h
[25] = system: GES1; experiment: Antiproliferative activity against human GES1 cells assessed as inhibition of cell proliferation measured after 72 hrs by MTT assay; type: cell-based; conditions: GES1, 72 h
[26] = system: MGC-803; experiment: Induction of apoptosis in human MGC-803 cells assessed as decrease in Bcl-2 expression at 0.75 to 3 uM measured after 48 hrs by western blot assay; type: functional, cell-based; conditions: dose 0.75-3 µM
[27] = system: MGC-803; experiment: Cell cycle arrest in human MGC-803 cells assessed as accumulation of cells in G0/G1 phase at 1.5 uM measured after 24 hrs by PI staining based flow cytometry assay (reference value: 49.39%); type: functional
[28] = system: MGC-803; experiment: Induction of apoptosis in human MGC-803 cells assessed as early apoptotic cells at 3 uM measured after 48 hrs by Annexin V-FITC/PI staining based flow cytometry method (reference value: 0.992 %); type: functional
[29] = system: MGC-803; experiment: Cell cycle arrest in human MGC-803 cells assessed as accumulation of cells in G0/G1 phase at 0.75 uM measured after 24 hrs by PI staining based flow cytometry assay (reference value: 49.39%); type: functional
[30] = system: MGC-803; experiment: Inhibition of cell migration in human MGC-803 cells measured after 48 hrs by wound healing assay; type: functional, cell-based; conditions: dose 0.25-1 µM
[31] = Toxicity in mouse assessed as mouse survival at 2 mg/kg, ig measured after 2 weeks; type: organism-based; conditions: in vivo, po, 336 h
[32] = Toxicity in mouse assessed by effect on changes in body weight at 2 mg/kg, ig measured after 2 weeks; type: organism-based; conditions: in vivo, po, 336 h
[33] = system: MGC-803; experiment: Induction of apoptosis in human MGC-803 cells assessed as late apoptotic cells at 0.75 uM measured after 48 hrs by Annexin V-FITC/PI staining based flow cytometry method (reference value: 3.10 %); type: functional
[34] = system: MGC-803; experiment: Induction of apoptosis in human MGC-803 cells assessed as upregulation of Bax at 0.75 to 3 uM measured after 48 hrs by western blot assay; type: functional, cell-based; conditions: dose 0.75-3 µM
[35] = system: MGC-803; experiment: Induction of apoptosis in human MGC-803 cells assessed as early apoptotic cells at 0.75 uM measured after 48 hrs by Annexin V-FITC/PI staining based flow cytometry method (reference value: 0.992 %); type: functional
[36] = system: MGC-803; experiment: Induction of apoptosis in human MGC-803 cells assessed as late apoptotic cells at 1.5 uM measured after 48 hrs by Annexin V-FITC/PI staining based flow cytometry method (reference value: 3.10 %); type: functional

For Cc1cc(Nc2ccn(Cc3nc(C)c4ccccc4n3)n2)n2nc(SCc3ccc(Br)cc3)nc2n1, the Activity [1] was 27.7%, the Activity [2] was 19.3% and the Activity [3] was “Non-Toxic”. The Activity [4] was 20.75%, the Activity [5] was “Dose-Dependent Effect” and the Activity [6] was “Active”. For the same compound, the Activity [7] was 18.5%, the IC50 [8] was 0.96 µM and the Activity [9] was “Non-Toxic”. For the same compound, the Activity [10] was 4.64%, the IC50 [11] was 5.45 µM and the Activity [12] was 14.61%. For the same compound, the Activity [13] was 3.46%, the Activity [14] was “Dose-Dependent Effect” and the Activity [15] was “Active”. The viability at 1.5 µM [16] was 80.3%, the Activity [17] was “Dose-Dependent Effect” and the “Ratio EC50” value [18] was 38. For the same compound, the Activity [19] was “Dose-Dependent Effect”, the Activity [20] was 24.9% and the Activity [21] was “Dose-Dependent Effect”. The Activity [22] was 22.83%, the Activity [23] was “Dose-Dependent Effect” and the Activity [24] was “Non-Toxic”. The IC50 [25] was 36.8 µM, the Activity [26] was “Dose-Dependent Effect” and the Activity [27] was 57.78%. For the same compound, the Activity [28] was 19.3%, the Activity [29] was 56.2% and the Activity [30] was “Dose-Dependent Effect”. For the same compound, the Activity [31] was “Non-Toxic”, the Activity [32] was “Non-Toxic” and the Activity [33] was 5.23%. For the same compound, the Activity [34] was “Dose-Dependent Effect”, the Activity [35] was 2.17% and the Activity [36] was 10.4%.
